Data reported in ChEMBL document CHEMBL1156356, “Aromatase inhibitors from Broussonetia papyrifera” (J Nat Prod, 2001).

Molecular target: T1, Aromatase (Homo sapiens, UniProt P11511)
T1 sequence (P11511 whole entry): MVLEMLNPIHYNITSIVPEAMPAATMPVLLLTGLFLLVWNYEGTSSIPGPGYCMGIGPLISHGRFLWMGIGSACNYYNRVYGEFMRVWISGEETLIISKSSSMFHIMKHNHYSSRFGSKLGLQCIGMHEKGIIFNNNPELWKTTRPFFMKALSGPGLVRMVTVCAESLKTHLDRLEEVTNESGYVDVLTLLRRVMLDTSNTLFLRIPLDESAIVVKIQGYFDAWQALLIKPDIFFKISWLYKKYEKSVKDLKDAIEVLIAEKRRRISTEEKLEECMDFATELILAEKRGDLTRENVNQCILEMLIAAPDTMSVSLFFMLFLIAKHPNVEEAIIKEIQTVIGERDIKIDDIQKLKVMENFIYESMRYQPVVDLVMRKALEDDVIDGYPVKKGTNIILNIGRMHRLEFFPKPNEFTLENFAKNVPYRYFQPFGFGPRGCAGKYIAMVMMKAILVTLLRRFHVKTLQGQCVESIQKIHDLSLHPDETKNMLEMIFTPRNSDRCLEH
Assay: Inhibition of aromatase from human placental microsomes

Compound	IC50
O=c1ccc2c(o1)CCCC2	> 266 µM
CC(C)=CCc1cc([C@@H]2CCc3ccc(O)cc3O2)ccc1O	> 129 µM
COc1cc(O)ccc1CCCc1ccc(O)cc1 [BROUSSONIN B]	> 155 µM
O=C1c2c(O)cc(O)cc2O[C@H](c2ccc(O)cc2)[C@H]1O [DIHYDROKAEMPFEROL]	> 139 µM
COc1ccc(CCCc2ccc(O)c(OC)c2)c(OC)c1 [BROUSSONIN F]	> 132 µM
CC(C)=CCc1cc2c(cc1O)O[C@H](c1ccc(O)cc1)CC2=O [BAVACHIN]	> 123 µM
O=C(/C=C/c1ccc(O)cc1O)c1ccc(O)cc1O	> 147 µM
Oc1cc(O)cc(-c2cc3ccc(O)cc3o2)c1 [MORACIN M]	> 165 µM
CC1(C)C=Cc2c(O)cc(-c3cc4ccc(O)cc4o3)cc2O1 [MORACIN D]	> 130 µM
CC1(C)C[C@H](O)C[C@@]2(C)OC(=O)C=C12 [LOLIOLIDE]	> 204 µM
Oc1ccc(CCCc2ccc(O)cc2O)cc1	> 164 µM
COc1cc(O)cc(-c2cc3ccc(O)cc3o2)c1CC=C(C)C [MORACIN I]	> 123 µM
Oc1ccc([C@@H]2CCc3ccc(O)cc3O2)cc1	> 165 µM
CC(C)=CCc1c(O)ccc(CCCc2ccc(O)cc2)c1O	> 128 µM
COc1ccc(CCCc2ccc(OC)c(O)c2)c(O)c1 [BROUSSONIN E]	> 139 µM
CC(C)=CCc1cc(C(=O)/C=C/c2ccc(O)cc2)c(O)cc1O [BROUSSOCHALCONE B]	> 123 µM
O=C1c2c(O)cc(O)cc2O[C@H](c2ccc(O)cc2O)[C@H]1O [DIHYDROMORIN]	> 131 µM
CC(C)(O)[C@@H]1Cc2cc3ccc(=O)oc3cc2O1 [MARMESIN]	> 162 µM

Continued, values first:

IC50	Compound
> 123 µM	CC(C)=CCc1c(O)ccc(C(=O)/C=C/c2ccc(O)cc2)c1O [ISOBAVACHALCONE]
0.1 µM	CC(C)(O)C1Cc2c(ccc3c2O[C@H](c2ccc(O)cc2O)CC3=O)O1 (some centres undefined)
0.1 µM	CC(C)=CCc1cc(-c2oc3cc(O)cc(O)c3c(=O)c2O)ccc1O [ISOLICOFLAVONOL]
> 123 µM	COc1cc(O)ccc1CCCc1ccc(O)c(CC=C(C)C)c1
> 108 µM	CC(C)=CCc1c(O)cc2oc(-c3ccc(O)c(O)c3)c(O)c(=O)c2c1O [GANCAONIN P]
9.7 µM	CC(C)=CCc1cc(-c2oc3c(CC=C(C)C)c(O)cc(O)c3c(=O)c2O)ccc1O [BROUSSOFLAVONOL F]
> 118 µM	CC(C)=CCc1cc(C(=O)/C=C/c2ccc(O)c(O)c2)c(O)cc1O [BROUSSOCHALCONE A]
> 88.4 µM	COc1c(-c2ccc(O)c(O)c2)oc2cc(O)c(C/C=C(\C)CCC=C(C)C)c(O)c2c1=O
30 µM	COc1ccc(CCCc2ccc(O)cc2)c(O)c1 [BROUSSONIN A]
0.4 µM	CC(C)=CCc1cc(C2CC(=O)c3c(O)cc(O)cc3O2)ccc1O (centres undefined)
> 91.2 µM	CC(C)=CCC/C(C)=C/Cc1c(O)cc2oc(-c3ccc(O)c(O)c3)c(O)c(=O)c2c1O
3.4 µM	CC(C)=CCc1c(O)ccc2c1O[C@H](c1ccc(O)cc1O)CC2=O
31.1 µM	CC(C)=CCc1c(O)cc(O)cc1-c1cc2ccc(O)cc2o1 [DEMETHYLMORACIN I]
7.5 µM	CC1=C[C@@H]2c3c(O)cc(-c4cc5ccc(O)cc5o4)cc3O[C@]3(c4ccc(O)cc4O)Oc4cc(O)ccc4[C@@H](C1)C23 (some centres undefined) [ALBANOL A]
31.1 µM	CC(C)=CCc1cc2cc(-c3cc(O)cc(O)c3)oc2cc1O [MORACIN N]
> 94.2 µM	CC(C)=CCc1cc([C@H]2Oc3c(CC=C(C)C)c(O)cc(O)c3C(=O)[C@@H]2O)ccc1O
